The NIST ThermoML archive (doi:10.1021/je800248w)
± gives the expanded uncertainty stated by the source.

How the values were obtained:
[1] = molar heat capacity at constant pressure; xn = mol fraction of the nth substance listed; details: 101.3 kPa, Liquid, Small sample (50 mg) DSC
[2] = excess molar enthalpy (molar enthalpy of mixing); xn = mol fraction of the nth substance listed; details: 101 kPa, Liquid, Calvet calorimetry

CCn1cc[n+](C)c1.O=S(=O)([O-])C(F)(F)F [1-ethyl-3-methylimidazolium trifluoromethanesulfonate] + O
Details	excess molar enthalpy [kcal/mol]	molar heat capacity at constant pressure [J/K/mol]
[1], 283.15 K, x2 = 0	–	353 ± 29
[1], 283.15 K, x2 = 0.2259	–	283 ± 23
[1], 283.15 K, x2 = 0.4351	–	226 ± 18
[1], 283.15 K, x2 = 0.6152	–	181 ± 15
[1], 283.15 K, x2 = 0.7835	–	135 ± 11
[1], 283.15 K, x2 = 0.8614	–	114 ± 9
[1], 283.15 K, x2 = 0.9353	–	94 ± 8
[1], 283.15 K, x2 = 0.9712	–	80 ± 7
[1], 283.15 K, x2 = 0.9924	–	76 ± 6
[1], 293.15 K, x2 = 0	–	358 ± 29
[1], 293.15 K, x2 = 0.2259	–	287 ± 23
[1], 293.15 K, x2 = 0.4351	–	230 ± 19
[1], 293.15 K, x2 = 0.6152	–	184 ± 15
[1], 293.15 K, x2 = 0.7835	–	137 ± 11
[1], 293.15 K, x2 = 0.8614	–	115 ± 9
[1], 293.15 K, x2 = 0.9353	–	95 ± 8
[1], 293.15 K, x2 = 0.9712	–	81 ± 7
[1], 293.15 K, x2 = 0.9924	–	77 ± 6
[1], 303.15 K, x2 = 0	–	366 ± 30
[1], 303.15 K, x2 = 0.2259	–	294 ± 24
[1], 303.15 K, x2 = 0.4351	–	236 ± 19
[1], 303.15 K, x2 = 0.6152	–	189 ± 15
[1], 303.15 K, x2 = 0.7835	–	140 ± 11
[1], 303.15 K, x2 = 0.8614	–	118 ± 10
[1], 303.15 K, x2 = 0.9353	–	97 ± 8
[1], 303.15 K, x2 = 0.9712	–	83 ± 7
[1], 303.15 K, x2 = 0.9924	–	78 ± 6
[1], 313.15 K, x2 = 0	–	371 ± 30
[1], 313.15 K, x2 = 0.2259	–	298 ± 24
[1], 313.15 K, x2 = 0.4351	–	239 ± 19
[1], 313.15 K, x2 = 0.6152	–	191 ± 16
[1], 313.15 K, x2 = 0.7835	–	142 ± 12
[1], 313.15 K, x2 = 0.8614	–	120 ± 10
[1], 313.15 K, x2 = 0.9353	–	98 ± 8
[1], 313.15 K, x2 = 0.9712	–	83 ± 7
[1], 313.15 K, x2 = 0.9924	–	78 ± 6
[1], 323.15 K, x2 = 0	–	376 ± 31
[1], 323.15 K, x2 = 0.2259	–	302 ± 25
[1], 323.15 K, x2 = 0.4351	–	242 ± 20
[1], 323.15 K, x2 = 0.6152	–	193 ± 16
[1], 323.15 K, x2 = 0.7835	–	144 ± 12
[1], 323.15 K, x2 = 0.8614	–	122 ± 10
[1], 323.15 K, x2 = 0.9353	–	99 ± 8
[1], 323.15 K, x2 = 0.9712	–	84 ± 7
[1], 323.15 K, x2 = 0.9924	–	78 ± 6
[1], 333.15 K, x2 = 0	–	380 ± 31
[1], 333.15 K, x2 = 0.2259	–	306 ± 25
[1], 333.15 K, x2 = 0.4351	–	245 ± 20
[1], 333.15 K, x2 = 0.6152	–	195 ± 16
[1], 333.15 K, x2 = 0.7835	–	146 ± 12
[1], 333.15 K, x2 = 0.8614	–	123 ± 10
[1], 333.15 K, x2 = 0.9353	–	99 ± 8
[1], 333.15 K, x2 = 0.9712	–	85 ± 7
[1], 333.15 K, x2 = 0.9924	–	79 ± 6
[1], 343.15 K, x2 = 0	–	384 ± 31
[1], 343.15 K, x2 = 0.2259	–	311 ± 25
[1], 343.15 K, x2 = 0.4351	–	249 ± 20
[1], 343.15 K, x2 = 0.6152	–	197 ± 16
[1], 343.15 K, x2 = 0.7835	–	148 ± 12
[1], 343.15 K, x2 = 0.8614	–	125 ± 10
[1], 343.15 K, x2 = 0.9353	–	100 ± 8
[1], 343.15 K, x2 = 0.9712	–	85 ± 7
[1], 343.15 K, x2 = 0.9924	–	79 ± 6
[2], 313.13 K, x2 = 0.2487	0.168 ± 0.00693	–
[2], 313.13 K, x2 = 0.2495	0.168 ± 0.00693	–
[2], 313.13 K, x2 = 0.4958	0.269 ± 0.011	–
[2], 313.13 K, x2 = 0.4972	0.269 ± 0.011	–
[2], 313.13 K, x2 = 0.7477	0.242 ± 0.0098	–
[2], 323.12 K, x2 = 0.2476	0.166 ± 0.00669	–
[2], 323.12 K, x2 = 0.2495	0.167 ± 0.00693	–
[2], 323.12 K, x2 = 0.4959	0.276 ± 0.0112	–
[2], 323.12 K, x2 = 0.4969	0.275 ± 0.0112	–
[2], 323.12 K, x2 = 0.7471	0.259 ± 0.0105	–
[2], 323.12 K, x2 = 0.7474	0.258 ± 0.0105	–
[2], 333.13 K, x2 = 0.2482	0.167 ± 0.00669	–
[2], 333.13 K, x2 = 0.2485	0.167 ± 0.00669	–
[2], 333.13 K, x2 = 0.495	0.283 ± 0.0115	–
[2], 333.13 K, x2 = 0.4986	0.284 ± 0.0115	–
[2], 333.13 K, x2 = 0.7477	0.277 ± 0.0112	–
[2], 333.13 K, x2 = 0.7479	0.276 ± 0.0112	–
[2], 348.12 K, x2 = 0.2497	0.168 ± 0.00693	–
[2], 348.12 K, x2 = 0.2514	0.169 ± 0.00693	–
[2], 348.12 K, x2 = 0.4967	0.297 ± 0.0122	–
[2], 348.12 K, x2 = 0.4985	0.298 ± 0.0122	–
[2], 348.12 K, x2 = 0.748	0.308 ± 0.0124	–
[2], 348.12 K, x2 = 0.7481	0.307 ± 0.0124	–

CCOS(=O)(=O)[O-].CCn1cc[n+](C)c1 [1-ethyl-3-methylimidazolium ethyl sulfate] + O
Details	excess molar enthalpy [kcal/mol]	molar heat capacity at constant pressure [J/K/mol]
[1], 283.15 K, x2 = 0	–	365 ± 30
[1], 283.15 K, x2 = 0.212	–	294 ± 24
[1], 283.15 K, x2 = 0.4079	–	235 ± 19
[1], 283.15 K, x2 = 0.5925	–	179 ± 15
[1], 283.15 K, x2 = 0.766	–	142 ± 12
[1], 283.15 K, x2 = 0.8495	–	115 ± 9
[1], 283.15 K, x2 = 0.9282	–	95 ± 8
[1], 283.15 K, x2 = 0.9684	–	83 ± 7
[1], 283.15 K, x2 = 0.9916	–	78 ± 6
[1], 293.15 K, x2 = 0	–	371 ± 30
[1], 293.15 K, x2 = 0.212	–	297 ± 24
[1], 293.15 K, x2 = 0.4079	–	239 ± 19
[1], 293.15 K, x2 = 0.5925	–	184 ± 15
[1], 293.15 K, x2 = 0.766	–	145 ± 12
[1], 293.15 K, x2 = 0.8495	–	118 ± 10
[1], 293.15 K, x2 = 0.9282	–	96 ± 8
[1], 293.15 K, x2 = 0.9684	–	85 ± 7
[1], 293.15 K, x2 = 0.9916	–	78 ± 6
[1], 303.15 K, x2 = 0	–	380 ± 31
[1], 303.15 K, x2 = 0.212	–	304 ± 25
[1], 303.15 K, x2 = 0.4079	–	245 ± 20
[1], 303.15 K, x2 = 0.5925	–	190 ± 15
[1], 303.15 K, x2 = 0.766	–	149 ± 12
[1], 303.15 K, x2 = 0.8495	–	122 ± 10
[1], 303.15 K, x2 = 0.9282	–	98 ± 8
[1], 303.15 K, x2 = 0.9684	–	86 ± 7
[1], 303.15 K, x2 = 0.9916	–	79 ± 6
[1], 313.15 K, x2 = 0	–	386 ± 31
[1], 313.15 K, x2 = 0.212	–	309 ± 25
[1], 313.15 K, x2 = 0.4079	–	249 ± 20
[1], 313.15 K, x2 = 0.5925	–	193 ± 16
[1], 313.15 K, x2 = 0.766	–	152 ± 12
[1], 313.15 K, x2 = 0.8495	–	124 ± 10
[1], 313.15 K, x2 = 0.9282	–	100 ± 8
[1], 313.15 K, x2 = 0.9684	–	87 ± 7
[1], 313.15 K, x2 = 0.9916	–	79 ± 6
[1], 323.15 K, x2 = 0	–	392 ± 32
[1], 323.15 K, x2 = 0.212	–	314 ± 26
[1], 323.15 K, x2 = 0.4079	–	253 ± 21
[1], 323.15 K, x2 = 0.5925	–	197 ± 16
[1], 323.15 K, x2 = 0.766	–	154 ± 13
[1], 323.15 K, x2 = 0.8495	–	126 ± 10
[1], 323.15 K, x2 = 0.9282	–	101 ± 8
[1], 323.15 K, x2 = 0.9684	–	88 ± 7
[1], 323.15 K, x2 = 0.9916	–	79 ± 6
[1], 333.15 K, x2 = 0	–	397 ± 32
[1], 333.15 K, x2 = 0.212	–	319 ± 26
[1], 333.15 K, x2 = 0.4079	–	256 ± 21
[1], 333.15 K, x2 = 0.5925	–	201 ± 16
[1], 333.15 K, x2 = 0.766	–	157 ± 13
[1], 333.15 K, x2 = 0.8495	–	127 ± 10
[1], 333.15 K, x2 = 0.9282	–	102 ± 8
[1], 333.15 K, x2 = 0.9684	–	88 ± 7
[1], 333.15 K, x2 = 0.9916	–	80 ± 7
[1], 343.15 K, x2 = 0	–	403 ± 33
[1], 343.15 K, x2 = 0.212	–	324 ± 26
[1], 343.15 K, x2 = 0.4079	–	260 ± 21
[1], 343.15 K, x2 = 0.5925	–	204 ± 17
[1], 343.15 K, x2 = 0.766	–	158 ± 13
[1], 343.15 K, x2 = 0.8495	–	129 ± 10
[1], 343.15 K, x2 = 0.9282	–	103 ± 8
[1], 343.15 K, x2 = 0.9684	–	89 ± 7
[1], 343.15 K, x2 = 0.9916	–	80 ± 7
[2], 313.14 K, x2 = 0.2496	-0.109 ± 0.00454	–
[2], 313.14 K, x2 = 0.2497	-0.11 ± 0.00454	–
[2], 313.14 K, x2 = 0.4936	-0.183 ± 0.00741	–
[2], 313.14 K, x2 = 0.4951	-0.184 ± 0.00741	–
[2], 313.14 K, x2 = 0.7491	-0.231 ± 0.00932	–
[2], 313.14 K, x2 = 0.7495	-0.233 ± 0.00956	–
[2], 323.12 K, x2 = 0.2425	-0.116 ± 0.00478	–
[2], 323.12 K, x2 = 0.2486	-0.114 ± 0.00478	–
[2], 323.12 K, x2 = 0.4979	-0.189 ± 0.00765	–
[2], 323.12 K, x2 = 0.4991	-0.189 ± 0.00765	–
[2], 323.12 K, x2 = 0.7464	-0.221 ± 0.00908	–
[2], 323.12 K, x2 = 0.7481	-0.226 ± 0.00932	–
[2], 333.11 K, x2 = 0.2483	-0.119 ± 0.00478	–
[2], 333.11 K, x2 = 0.2496	-0.121 ± 0.00502	–
[2], 333.11 K, x2 = 0.496	-0.191 ± 0.00789	–
[2], 333.11 K, x2 = 0.4974	-0.189 ± 0.00765	–
[2], 333.11 K, x2 = 0.7476	-0.218 ± 0.00884	–
[2], 333.11 K, x2 = 0.7484	-0.218 ± 0.00884	–
[2], 348.12 K, x2 = 0.2492	-0.125 ± 0.00502	–
[2], 348.12 K, x2 = 0.2499	-0.125 ± 0.00502	–
[2], 348.12 K, x2 = 0.4948	-0.191 ± 0.00789	–
[2], 348.12 K, x2 = 0.498	-0.191 ± 0.00789	–
[2], 348.12 K, x2 = 0.7477	-0.199 ± 0.00813	–
[2], 348.12 K, x2 = 0.7483	-0.199 ± 0.00813	–
